{"source": "patent US20130281420A1", "about": "“Ophthalmic Formulations of Squalamine” (Ohr Pharmaceutical, Inc., priority 2010, published 2013)", "key": {"[1]": {"test_system": "human vascular endothelial cells (HUVEC)", "assay": "Inhibition of VEGF induced tube formation by HUVEC", "format": "cell-based", "settings": "50 nM (tested at 50, 100, 200 nM), 24 hrs, Matrigel with VEGF", "method": "Squalamine lactate was mixed in solution at 50, 100 or 200 nM concentration with a suspension of human vascular endothelial cells (HUVEC). The suspension was then immediately plated on Matrigel which contained multiple growth factors including vascular endothelial cell growth factor (VEGF). The plates were incubated at 37° C. in an atmosphere of […] for 24 hrs and then the plates were photographed."}, "[2]": {"assay": "Ocular biodistribution study following ocular administration", "format": "in vivo, Dutch-Belted rabbits", "settings": "formulation G, 0.08 mg/eye once; for concentration at 15 min / concentration at 30 min / concentration at 3 h: male, Dutch-Belted, rabbit, posterior sclera and choroid, other: ocular administration, 0.08 mg/eye", "method": "The objective of this study was to determine the ocular biodistribution of squalamine lactate formulation G (see composition above) when given once by ocular administration to male Dutch-Belted rabbits.\nThe study design was as follows:\nBody weight measurements were taken for randomization/dose calculation purposes. […] Following dose administration, blood samples were collected at specified time points and plasma was prepared. After blood sample collection, the animals were euthanized and a necropsy was performed to collect the following ocular tissues: aqueous humor, vitreous humor, sensory retina and choroid/sclera."}, "AMD": {"test_system": "AMD", "settings": "cited from earlier work"}, "[3]": {"settings": "any animals (15 min, 30 min, 3 hrs)"}, "[4]": {"settings": "mean of eyes, read-out: Squalamine in posterior sclera and choroid, Mean"}}, "note": "Where a name gives a salt, the structure may show the parent alone. Read-outs that look alike come from different tables or passages of the source."}
{"smiles": "CC(C)[C@@H](CC[C@@H](C)[C@H]1CC[C@H]2[C@@H]3[C@H](O)C[C@H]4C[C@@H](NCCCNCCCCN)CC[C@]4(C)[C@H]3CC[C@]12C)OS(=O)(=O)O", "note": "[Squalamine, ([6-[(3S,5R,7R,10S,13R,145)-3-[3-(4-aminobutylamino)propylamino]-7-hydroxy-10,13-dimethyl-2,3,4,5,6,7,8,9,11,12,14,15,16,17-tetradecahydro-1H-cyclopenta[a]phenanthren-17-yl]-2-methylheptan-3-yl]hydrogen sulfate)]", "values": [{"measurement": "HUVEC tube formation on Matrigel", "setting": "[1]", "value": "disrupts tube formation"}, {"measurement": "Squalamine in posterior sclera and choroid", "setting": "[2]; 30 min, An#105 left eye", "value": "BQL"}, {"measurement": "Level of squalamine in aqueous humor", "setting": "[2]; [3]", "value": "No quantifiable levels"}, {"measurement": "Level of squalamine in vitreous humor", "setting": "[2]; [3]", "value": "No quantifiable levels"}, {"measurement": "concentration at 15 min", "setting": "[2]; An#101 left eye, read-out: Squalamine in posterior sclera and choroid", "value": 101, "unit": "ng/g"}, {"measurement": "concentration at 15 min", "setting": "[2]; An#101 right eye, read-out: Squalamine in posterior sclera and choroid", "value": 26.6, "unit": "ng/g"}, {"measurement": "concentration at 15 min", "setting": "[2]; An#102 left eye, read-out: Squalamine in posterior sclera and choroid", "value": 44.2, "unit": "ng/g"}, {"measurement": "concentration at 15 min", "setting": "[2]; An#102 right eye, read-out: Squalamine in posterior sclera and choroid", "value": 145, "unit": "ng/g"}, {"measurement": "concentration at 15 min", "setting": "[2]; An#103 left eye, read-out: Squalamine in posterior sclera and choroid", "value": 195, "unit": "ng/g"}, {"measurement": "concentration at 15 min", "setting": "[2]; An#103 right eye, read-out: Squalamine in posterior sclera and choroid", "value": 31.7, "unit": "ng/g"}, {"measurement": "concentration at 15 min", "setting": "[2]; [4]", "value": 90.6, "unit": "ng/g"}, {"measurement": "concentration at 30 min", "setting": "[2]; 30 min, An#104 left eye, read-out: Squalamine in posterior sclera and choroid", "value": 54.4, "unit": "ng/g"}, {"measurement": "concentration at 30 min", "setting": "[2]; 30 min, An#104 right eye, read-out: Squalamine in posterior sclera and choroid", "value": 121, "unit": "ng/g"}, {"measurement": "concentration at 30 min", "setting": "[2]; 30 min, An#105 right eye, read-out: Squalamine in posterior sclera and choroid", "value": 78.9, "unit": "ng/g"}, {"measurement": "concentration at 30 min", "setting": "[2]; 30 min, An#106 left eye, read-out: Squalamine in posterior sclera and choroid", "value": 96.7, "unit": "ng/g"}, {"measurement": "concentration at 30 min", "setting": "[2]; 30 min, An#106 right eye, read-out: Squalamine in posterior sclera and choroid", "value": 94.1, "unit": "ng/g"}, {"measurement": "concentration at 30 min", "setting": "[2]; 30 min, mean of eyes, read-out: Squalamine in posterior sclera and choroid, Mean", "value": 89, "unit": "ng/g"}, {"measurement": "concentration at 3 h", "setting": "[2]; An#107 left eye, read-out: Squalamine in posterior sclera and choroid", "value": 23.9, "unit": "ng/g"}, {"measurement": "concentration at 3 h", "setting": "[2]; An#107 right eye, read-out: Squalamine in posterior sclera and choroid", "value": 149, "unit": "ng/g"}, {"measurement": "concentration at 3 h", "setting": "[2]; An#108 left eye, read-out: Squalamine in posterior sclera and choroid", "value": 26, "unit": "ng/g"}, {"measurement": "concentration at 3 h", "setting": "[2]; An#108 right eye, read-out: Squalamine in posterior sclera and choroid", "value": 34.6, "unit": "ng/g"}, {"measurement": "concentration at 3 h", "setting": "[2]; An#109 left eye, read-out: Squalamine in posterior sclera and choroid", "value": 71.8, "unit": "ng/g"}, {"measurement": "concentration at 3 h", "setting": "[2]; An#109 right eye, read-out: Squalamine in posterior sclera and choroid", "value": 51.1, "unit": "ng/g"}, {"measurement": "concentration at 3 h", "setting": "[2]; [4]", "value": 59.4, "unit": "ng/g"}, {"measurement": "visual acuity", "setting": "AMD; IV infusion, after the first four to five weeks of administration", "value": "good gains in visual acuity"}, {"measurement": "plasma half-life", "setting": "AMD; human subjects, 40 mg dose, intravenous infusion", "value": "short"}, {"measurement": "adverse reactions of intravenous dosing", "setting": "AMD; intravenous dosing, human", "value": "local infusion-site reactions"}]}
